Each structure is given as a SMILES string.

What all share (experiment): Post-emergence efficacy, Method A
Holding throughout (assay type): in vivo

One assay concerns Setaria faberi (SETFA). The following applies: 500 g/Ha, 100=total damage to plant, 0=no damage, evaluated after 7 and 14 days, read-out: Control of weed species after post-emergence application, SETFA.
Assay [1] relates to Echinochloa crus-galli (ECHCG). The following applies: 500 g/Ha, 100=total damage to plant, 0=no damage, evaluated after 7 and 14 days, read-out: Control of weed species after post-emergence application, ECHCG.
The next assay concerns Lolium perenne (LOLPE). The following applies: 500 g/Ha, 100=total damage to plant, 0=no damage, evaluated after 7 and 14 days, read-out: Control of weed species after post-emergence application, LOLPE.
In assay [2] the test system is Euphorbia heterophylla (EPHHL). The conditions noted are these: 500 g/Ha, 100=total damage to plant, 0=no damage, evaluated after 7 and 14 days, read-out: Control of weed species after post-emergence application, EPHHL.
In assay [3] the test system is Amaranthus palmeri (AMAPA). The following applies: 500 g/Ha, 100=total damage to plant, 0=no damage, evaluated after 7 and 14 days, read-out: Control of weed species after post-emergence application, AMAPA.
The test system of assay [4] is Chenopodium album (CHEAL). The following applies: 500 g/Ha, 100=total damage to plant, 0=no damage, evaluated after 7 and 14 days, read-out: Control of weed species after post-emergence application, CHEAL.
The subject of a further assay is Eleusine indica (ELEIN). The following applies: 500 g/Ha, 100=total damage to plant, 0=no damage, evaluated after 7 and 14 days, read-out: Control of weed species after post-emergence application, ELEIN.
Assay [5] deals with Digitaria sanguinalis (DIGSA). The following applies: 500 g/Ha, 100=total damage to plant, 0=no damage, evaluated after 7 and 14 days, read-out: Control of weed species after post-emergence application, DIGSA.
Assay [6] concerns Ipomoea hederacea (IPOHE). The following applies: 500 g/Ha, 100=total damage to plant, 0=no damage, evaluated after 7 and 14 days, read-out: Control of weed species after post-emergence application, IPOHE.

In the case of `O=C(O)CC[n+]1ccc(-c2nc(C(F)(F)F)ns2)c(Br)c1` [Compound A79, 3-[3-bromo-4-[3-(trifluoromethyl)-1,2,4-thiadiazol-5-yl]pyridin-1-ium-1-yl]propanoic acid acetate], the pest or weed control at 500 g/ha worked out at 70% in the assay on Setaria faberi (SETFA); 80% in [1]; 30% with Lolium perenne (LOLPE); 60% in [2]; 90% in assay [3]; 40% in assay [4]. The pest or weed control at 500 g/ha is 90% in the assay with Eleusine indica (ELEIN), 80% in [5] and 40% in assay [6].

As for `O=C(O)C[n+]1ccc(-c2ccsn2)cc1` [Compound A81], the pest or weed control at 500 g/ha in the assay with Setaria faberi (SETFA) came to 10%; in [1], 10%; with Lolium perenne (LOLPE), 0%; in assay [2] it was 20%; in [3], 70%; in assay [4], 40%. The figures for the pest or weed control at 500 g/ha (with Eleusine indica (ELEIN); in assay [5]; in assay [6]) were 40%, 10% and 0%, respectively.

On to `O=C(O)C[n+]1ccc(-c2ncsn2)cc1` [Compound A83], for which the pest or weed control at 500 g/ha with Setaria faberi (SETFA) worked out at 10%; in [1] it was 0%; with Lolium perenne (LOLPE), 10%; in assay [2] it was 50%; in [3], 20%; in [4], 30%. Besides, the figures for the pest or weed control at 500 g/ha (in the assay on Eleusine indica (ELEIN); in [5]; in [6]) were 10%, 20% and 10%, respectively.

On to `O=S(=O)([O-])C[n+]1ccc(-c2nccs2)cc1` [Compound A84], for which the pest or weed control at 500 g/ha amounted to 10% with Setaria faberi (SETFA); 30% in [1]; 10% with Lolium perenne (LOLPE); 50% in assay [2]; 70% in assay [3]; 60% in assay [4]. In addition, the pest or weed control at 500 g/ha with Eleusine indica (ELEIN) stood at 50%; in assay [5], 10%; in assay [6], 10%.

Consider `O=S(=O)([O-])C[n+]1ccc(-c2nc(C(F)(F)F)ns2)cc1` [Compound A85], for which the pest or weed control at 500 g/ha turned out to be 100% with Setaria faberi (SETFA); 100% in assay [1]; 90% with Lolium perenne (LOLPE); 100% in assay [2]; 100% in assay [3]; 90% in assay [4]. Also, the pest or weed control at 500 g/ha (with Eleusine indica (ELEIN); in [5]; in assay [6]) was 100% in each case.

For `O=C(O)C[n+]1ccc(-c2ccns2)cc1` [Compound A86], the pest or weed control at 500 g/ha with Setaria faberi (SETFA) was 10%; in assay [1] it was 20%; with Lolium perenne (LOLPE) it was 0%; in assay [2], 40%; in [3], 40%; in [4] it was 10%. In addition, the pest or weed control at 500 g/ha in the assay on Eleusine indica (ELEIN) was determined as 20%; in [5] it was 10%; in assay [6], 10%.

In the case of `O=S(=O)([O-])C[n+]1ccc(-c2ccns2)cc1` [Compound A87], the pest or weed control at 500 g/ha in the assay with Setaria faberi (SETFA) turned out to be 20%; in assay [1], 20%; in the assay on Lolium perenne (LOLPE) it was 0%; in assay [2] it was 20%; in assay [3] it was 0%; in [4] it was 10%. In addition, the pest or weed control at 500 g/ha (in the assay on Eleusine indica (ELEIN); in assay [5]; in assay [6]) was 0% in each case.

Consider `N#Cc1csc(-c2cc[n+](CCC(=O)O)cc2)n1` [Compound A88], for which the pest or weed control at 500 g/ha in the assay on Setaria faberi (SETFA) amounted to 0%; in assay [1], 0%; in the assay on Lolium perenne (LOLPE), 0%; in assay [2] it was 90%; in [3] it was 10%; in assay [4] it was 20%. Also, the pest or weed control at 500 g/ha (in the assay with Eleusine indica (ELEIN); in [5]; in assay [6]) was 0% each time.

As for `N#Cc1nsc(-c2cc[n+](CCC(=O)O)cc2)n1` [Compound A89], the pest or weed control at 500 g/ha in the assay on Setaria faberi (SETFA) turned out to be 80%; in assay [1], 60%; with Lolium perenne (LOLPE), 10%; in [2], 20%; in assay [3], 30%; in assay [4], 30%. In addition, the pest or weed control at 500 g/ha in the assay with Eleusine indica (ELEIN) is 80%; in assay [5] it was 90%; in [6] it was 10%.

With `Nc1nsc(-c2cc[n+](CCC(=O)O)cc2)n1` [Compound A92], the pest or weed control at 500 g/ha is 60% in the assay with Setaria faberi (SETFA); 60% in assay [1]; 10% with Lolium perenne (LOLPE); 80% in [2]; 100% in assay [3]; 60% in assay [4]. The pest or weed control at 500 g/ha with Eleusine indica (ELEIN) amounted to 20%; in assay [5] it was 80%; in assay [6] it was 20%.

As to `Nc1nnc(-c2cc[n+](CC(=O)O)cc2)s1` [Compound A94], the pest or weed control at 500 g/ha in the assay on Setaria faberi (SETFA) stood at 10%; in assay [1], 20%; with Lolium perenne (LOLPE), 10%; in assay [2], 30%; in [3] it was 30%; in assay [4], 40%. Moreover, the results for the pest or weed control at 500 g/ha (in the assay on Eleusine indica (ELEIN); in assay [5]; in assay [6]) were 40%, 30% and 10%, respectively.

On to `Cc1nnc(-c2cc[n+](CC(=O)O)cc2)s1` [Compound A95], for which the pest or weed control at 500 g/ha in the assay with Setaria faberi (SETFA) is 10%; in assay [1] it was 20%; in the assay on Lolium perenne (LOLPE), 0%; in [2], 10%; in [3], 40%; in [4], 30%. Besides, the pest or weed control at 500 g/ha was 60% with Eleusine indica (ELEIN), 10% in assay [5] and 10% in assay [6].

For `O=S(=O)([O-])C[n+]1ccc(-c2nc(Br)ns2)cc1` [Compound A96], the pest or weed control at 500 g/ha with Setaria faberi (SETFA) was 80%; in [1], 100%; with Lolium perenne (LOLPE), 100%; in assay [2], 100%; in assay [3] it was 100%; in assay [4], 100%. Also, the results for the pest or weed control at 500 g/ha (in the assay with Eleusine indica (ELEIN); in assay [5]; in [6]) were 90%, 100% and 30%, respectively.

Values taken from patent US20220104493A1, “HERBICIDAL COMPOUNDS” (SYNGENTA CROP PROTECTION AG, priority 2019, published 2022).
